From patent US8980924B2, “Non-retinoid RBP4 antagonist for treatment of age-related macular degeneration and stargardt disease” (The Trustees of Columbia University in the City of New York, priority 2010, dated 2015)

Experiments:
RBP4-TTR interaction = target: T1, RBP4-TTR interaction (Homo sapiens, UniProt P02753); assay: TR-FRET (HTRF) RBP4-TTR interaction assay, agonist mode; assay type: biochemical; details: without retinol, FIG. 8
T1 construct: made in house; host or cells: E. coli
Text: TR-FRET (Time-Resolved Fluorescence Resonance Energy Transfer) is an assay format that can be used in characterization of compounds affecting protein-protein interactions (31-33). […] In the presence of retinol, RBP4-TTR interaction induces FRET that can be registered as increased ratio of […] fluorescence signals. Binding of a desired RBP4 antagonist displaces retinol and induces hindrance for RBP4-TTR interaction resulting in the decreased FRET signal (FIG. 7).
The inventors developed an assay using E. coli-expressed MBP-tagged RBP4 and commercially available TTR labeled directly with Eu3+ cryptate. In addition to MBP-RBP4 and Eu3+ (K)-TTR, a detector reagent anti-MBP-d2 was present in the mix. The assay was first optimized in the agonist mode; sensitivity and dynamic range of the assay was […] in respect to RBP4, TTR and detection reagent concentrations.

serum RBP4 = target: T2, serum RBP4 (Mus musculus, UniProt Q00724); assay: Serum RBP4 level in treated mice; assay type: in vivo; details: orally dosed for 3 weeks at 30 mg/kg; wild-type and Abca4−/− mice; FIG. 11
T2 construct: from tissue; host or cells: mouse serum (in vivo, oral dosing)
Text: (§1) The Abca4−/− mouse model manifests accelerated accumulation of lipofuscin in the RPE and is considered a preclinical efficacy model for a drug reducing lipofuscin accumulation. […] There was approximately a 70% reduction in the serum RBP4 level in treated animals (FIG. 11). Additionally, the inventors discovered that that the levels of A2E/isoA2E were reduced by approximately 50% in treated mice (FIG. 12).

[1] = test system: bisretinoids (A2E/isoA2E, A2-DHP-PE, atRAL di-PE); assay: Bisretinoid levels in eyes of treated mice (tissue extraction and HPLC); assay type: in vivo; details: orally dosed for 3 weeks at 30 mg/kg
Text: as §1
Abca4/Abcr null mutant mice (albino) homozygous for Rpe65-Leu450 are bred genotyped and housed. Posterior eyecups of mice and RPE/choroids harvested from human donor eyes (National Disease Research Interchange, Philadelphia Pa.) are homogenized in phosphate buffered saline (PBS) using a glass tissue grinder and extracted in chloroform/methanol (2:1). […] An Alliance system (Waters, Corp, Milford, Mass.) equipped with 2695 Separation Module, 2996 Photodiode Array Detector, a 2475 Multi λ Fluorescence Detector and operating with Empower® software is used for HPLC analysis. […] HPLC quantification is carried out using the Empower® software to determine peak areas. […] Molar quantity per murine eye is determined using calibration curves constructed from known concentrations of purified external standards and by normalizing to the ratio of the HPLC injection volume (10 μL) versus total extract volume.

ERG b-wave = ERG b-wave after photobleaching; assay type: in vivo; details: FIG. 10
insulin sensitivity = details: mouse diabetes models; cited from earlier work
serum RBP4 and retinol = serum RBP4 and retinol (Rattus norvegicus, UniProt P04916); details: reference 15; cited from earlier work
A2E production = details: Abca4−/− mice, reference 11; cited from earlier work

| induction of RBP4-TTR interaction (RBP4-TTR interaction) | reduction in the serum RBP4 level (serum RBP4) [%] | effect on ERG b-wave after photobleaching (ERG b-wave) | SMILES | levels of A2-DHP-PE and atRAL di-PE [1] | effect on insulin sensitivity (insulin sensitivity) | effect on serum RBP4 and retinol (serum RBP4 and retinol) | effect on A2E production (A2E production) |
| --- | --- | --- | --- | --- | --- | --- | --- |
| did not induce RBP4-TTR interaction | ~70 | does not reduce ERG b-wave | O=C(O)c1ccccc1NC(=O)N1CCC(c2ccccc2C(F)(F)F)CC1 [Compound 1, 2(4-(2-(trifluoromethyl)phenyl)piperidine-1-carboxamido)benzoic acid] | also reduced | did not improve insulin sensitivity |  |  |
| did not induce RBP4-TTR interaction |  |  | CC1=C(/C=C/C(C)=C/C=C/C(C)=C/C(=O)Nc2ccc(O)cc2)C(C)(C)CCC1 [fenretinide, N-(4-hydroxy-phenyl)retinamide] |  |  | reduce serum RBP4 and retinol | reduced A2E production |
